Results reported in patent US11033539B2, “Compounds of formulas (VII), (VIII), (IX), (XI), (XII), (XIII), and (XIV) as muscarinic receptor 4(M4) antagonists for treating neurological diseases” (Neurocrine Biosciences, Inc., priority 2015, dated 2021).
pKi: −log10 of the molar value.

molecular target: human M4 receptor (Homo sapiens (Human), UniProt P08173); assay: Radioligand (tritiated N-methylscopolamine) binding assay, M4; details: not given
Summary of the method: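 Test compound (12 concentrations, 10 μM to […]), 1.5 nM radioligand and CHO receptor membranes were co-incubated at 37 °C for 90 minutes in 50 mM HEPES buffer with 100 mM NaCl, 5 mM MgCl2 and 1 mM EDTA, pH 7.4. Membranes were then harvested onto polyethylenimine-pretreated filters and radioactivity was counted to determine Ki.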

Sequence of human M4 receptor (P08173 whole entry): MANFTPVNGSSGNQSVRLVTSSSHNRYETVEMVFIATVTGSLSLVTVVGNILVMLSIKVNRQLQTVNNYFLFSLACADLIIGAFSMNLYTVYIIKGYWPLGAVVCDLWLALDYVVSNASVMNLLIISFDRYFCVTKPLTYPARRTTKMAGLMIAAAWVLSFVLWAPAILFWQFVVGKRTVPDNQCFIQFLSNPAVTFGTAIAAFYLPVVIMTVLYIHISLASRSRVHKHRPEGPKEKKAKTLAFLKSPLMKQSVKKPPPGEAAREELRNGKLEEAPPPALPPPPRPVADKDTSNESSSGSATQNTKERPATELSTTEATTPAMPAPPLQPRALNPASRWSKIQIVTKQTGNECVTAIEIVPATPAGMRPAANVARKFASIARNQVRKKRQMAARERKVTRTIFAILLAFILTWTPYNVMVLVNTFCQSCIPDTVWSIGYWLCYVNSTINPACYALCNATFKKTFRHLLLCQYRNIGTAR

`N#CC1(c2ccccc2)CCN(C(=O)NCCC2CCN(Cc3ccccc3)CC2)CC1` [8-33, N-[2-(1-benzylpiperidin-4-yl)ethyl]-4-cyano-4-phenylpiperidine-1-carboxamide] was tested. Which pKi did it give?
Its pKi is 6.00 to 7.00.

same assay, conditions: Ki against the M4 receptor; membranes from CHO cells expressing human M4; tritiated N-methylscopolamine 1.5 nM; read-out: Ki

With `N#Cc1cc(C(F)(F)F)ccc1N1CCN(C(=O)NCCC2CCN(Cc3ccccc3)CC2)CC1` [8-12, N-[2-(1-benzylpiperidin-4-yl)ethyl]-4-[2-cyano-4-(trifluoromethyl)phenyl]piperazine-1-carboxamide] as the molecule, how does the pKi read?
Its pKi is 7.00 to 8.00.

`O=C(NCCC1CCN(Cc2ccccc2)CC1)N1CCN(c2ccc(Cl)cc2)CC1` [8-13, N-[2-(1-benzylpiperidin-4-yl)ethyl]-4-(4-chlorophenyl)piperazine-1-carboxamide] was tested. Which pKi did it give?
The pKi was 7.00 to 8.00.

How did the pKi turn out when `O=C(NCCC1CCN(Cc2ccccc2)CC1)N1CCC(c2nc3ccccc3s2)CC1` [8-14, 4-(1,3-benzothiazol-2-yl)-N-[2-(1-benzylpiperidin-4-yl)ethyl]piperidine-1-carboxamide] was run?
Its pKi is 7.00 to 8.00.

How did the pKi turn out when `O=C(NCCC1CCN(Cc2ccccc2)CC1)N1CCN(c2ncc(C(F)(F)F)cc2Cl)CC1` [8-15, N-[2-(1-benzylpiperidin-4-yl)ethyl]-4-[3-chloro-5-(trifluoromethyl)pyridin-2-yl]piperazine-1-carboxamide] was run?
The pKi was 7.00 to 8.00.

How did the pKi turn out when `CN(C(=O)NCCC1CCN(Cc2ccccc2)CC1)C1CCN(c2ncc(C(F)(F)F)cc2Cl)C1` (centres unmarked) [8-16, 1-[2-(1-benzylpiperidin-4-yl)ethyl]-3-{1-[3-chloro-5-(trifluoromethyl)pyridin-2-yl]pyrrolidin-3-yl}-3-methylurea] was run?
Its pKi is 7.00 to 8.00.

How did the pKi turn out when `O=C(NCCC1CCN(Cc2ccccc2)CC1)N1CCN(c2cccc(C(F)(F)F)c2)CC1` [8-17, N-[2-(1-benzylpiperidin-4-yl)ethyl]-4-[3-(trifluoromethyl)phenyl]piperazine-1-carboxamide] was run?
The pKi was 7.00 to 8.00.

With `N#Cc1cc(F)cc(N2CCN(C(=O)NCCC3CCN(Cc4ccccc4)CC3)CC2)c1` [8-18, N-[2-(1-benzylpiperidin-4-yl)ethyl]-4-(3-cyano-5-fluorophenyl)piperazine-1-carboxamide] as the molecule, how does the pKi read?
The pKi was 7.00 to 8.00.

`O=C(NCCC1CCN(Cc2ccccc2)CC1)N1CCC(O)(c2cccc(C(F)(F)F)c2)CC1` [8-19, N-[2-(1-benzylpiperidin-4-yl)ethyl]-4-hydroxy-4-[3-(trifluoromethyl)phenyl]piperidine-1-carboxamide] was tested. Which pKi did it give?
The pKi was 7.00 to 8.00.

How did the pKi turn out when `O=C(NCCC1CCN(Cc2ccccc2)CC1)N1CCC(c2ccc(F)cc2)CC1` [8-20, N-[2-(1-benzylpiperidin-4-yl)ethyl]-4-(4-fluorophenyl)piperidine-1-carboxamide] was run?
The pKi was 6.00 to 7.00.

`CN(C(=O)NCCC1CCN(Cc2ccccc2)CC1)C1CCN(c2ccc(C(F)(F)F)cc2)C1` (centres unmarked) [8-21, 1-[2-(1-benzylpiperidin-4-yl)ethyl]-3-methyl-3-{1-[4-(trifluoromethyl)phenyl]pyrrolidin-3-yl}urea] was tested. Which pKi did it give?
The pKi was 6.00 to 7.00.

`N#Cc1cc(N2CCN(C(=O)NCCC3CCN(Cc4ccccc4)CC3)CC2)ccc1F` [8-22, N-[2-(1-benzylpiperidin-4-yl)ethyl]-4-(3-cyano-4-fluorophenyl)piperazine-1-carboxamide] was tested. Which pKi did it give?
The pKi was 6.00 to 7.00.

With `O=C(NCCC1CCN(Cc2ccccc2)CC1)N1CCC(O)(c2ccc(Cl)cc2)CC1` [8-23, N-[2-(1-benzylpiperidin-4-yl)ethyl]-4-(4-chlorophenyl)-4-hydroxypiperidine-1-carboxamide] as the molecule, how does the pKi read?
Its pKi is 6.00 to 7.00.

How did the pKi turn out when `COc1ccc(C2CCN(C(=O)NCCC3CCN(Cc4ccccc4)CC3)CC2)cc1` [8-24, N-[2-(1-benzylpiperidin-4-yl)ethyl]-4-(4-methoxyphenyl)piperidine-1-carboxamide] was run?
The pKi was 6.00 to 7.00.

`N#Cc1cccc(N2CCN(C(=O)NCCC3CCN(Cc4ccccc4)CC3)CC2)c1` [8-25, N-[2-(1-benzylpiperidin-4-yl)ethyl]-4-(3-cyanophenyl)piperazine-1-carboxamide] was tested. Which pKi did it give?
Its pKi is 6.00 to 7.00.

How did the pKi turn out when `O=C(NCCC1CCN(Cc2ccccc2)CC1)N1CCC(c2cccc(F)c2)CC1` [8-26, N-[2-(1-benzylpiperidin-4-yl)ethyl]-4-(3-fluorophenyl)piperidine-1-carboxamide] was run?
Its pKi is 6.00 to 7.00.

`N#Cc1ccc(N2CCN(C(=O)NCCC3CCN(Cc4ccccc4)CC3)CC2)cc1` [8-27, N-[2-(1-benzylpiperidin-4-yl)ethyl]-4-(4-cyanophenyl)piperazine-1-carboxamide] was tested. Which pKi did it give?
Its pKi is 6.00 to 7.00.

With `O=C(NCCC1CCN(Cc2ccccc2)CC1)N1CCN(c2cccc(O)c2)CC1` [8-28, N-[2-(1-benzylpiperidin-4-yl)ethyl]-4-(3-hydroxyphenyl)piperazine-1-carboxamide] as the molecule, how does the pKi read?
Its pKi is 6.00 to 7.00.

`O=C(NCCC1CCN(Cc2ccccc2)CC1)N1CCN(c2ncccn2)CC1` [8-29, N-[2-(1-benzylpiperidin-4-yl)ethyl]-4-(pyrimidin-2-yl)piperazine-1-carboxamide] was tested. Which pKi did it give?
Its pKi is 6.00 to 7.00.

How did the pKi turn out when `O=C(NCCC1CCN(Cc2ccccc2)CC1)N1CCC(c2c[nH]c3ccccc23)CC1` [8-30, N-[2-(1-benzylpiperidin-4-yl)ethyl]-4-(1H-indol-3-yl)piperidine-1-carboxamide] was run?
The pKi was 6.00 to 7.00.

With `CC(C)c1noc(C2CCN(C(=O)NCCC3CCN(Cc4ccccc4)CC3)CC2)n1` [8-31, N-[2-(1-benzylpiperidin-4-yl)ethyl]-4-[3-(propan-2-yl)-1,2,4-oxadiazol-5-yl]piperidine-1-carboxamide] as the molecule, how does the pKi read?
The pKi was 6.00 to 7.00.

How did the pKi turn out when `O=C(NCCC1CCN(Cc2ccccc2)CC1)N1CCC(c2ccccc2F)CC1` [8-32, N-[2-(1-benzylpiperidin-4-yl)ethyl]-4-(2-fluorophenyl)piperidine-1-carboxamide] was run?
The pKi was 6.00 to 7.00.

How did the pKi turn out when `O=C(NCCC1CCN(Cc2ccccc2)CC1)N1CCN(c2ccccc2F)CC1` [8-34, N-[2-(1-benzylpiperidin-4-yl)ethyl]-4-(2-fluorophenyl)piperazine-1-carboxamide] was run?
Its pKi is 6.00 to 7.00.

`O=C(NCCC1CCN(Cc2ccccc2)CC1)N1CCN(c2ccc(F)cc2)CC1` [8-35, N-[2-(1-benzylpiperidin-4-yl)ethyl]-4-(4-fluorophenyl)piperazine-1-carboxamide] was tested. Which pKi did it give?
The pKi was 6.00 to 7.00.

How did the pKi turn out when `CC(=O)c1ccc(N2CCN(C(=O)NCCC3CCN(Cc4ccccc4)CC3)CC2)cc1` [8-36, 4-(4-acetylphenyl)-N-[2-(1-benzylpiperidin-4-yl)ethyl]piperazine-1-carboxamide] was run?
The pKi was 6.00 to 7.00.

How did the pKi turn out when `CCN1CCN(C2CCN(C(=O)NCCC3CCN(Cc4ccccc4)CC3)CC2)CC1` [8-37, N-[2-(1-benzylpiperidin-4-yl)ethyl]-4-(4-ethylpiperazin-1-yl)piperidine-1-carboxamide] was run?
The pKi was 6.00 to 7.00.

How did the pKi turn out when `O=C(NCCC1CCN(Cc2ccccc2)CC1)N1CCC(c2ccccc2)CC1` [8-38, N-[2-(1-benzylpiperidin-4-yl)ethyl]-4-phenylpiperidine-1-carboxamide] was run?
The pKi was 6.00 to 7.00.

With `O=C(NCCC1CCN(Cc2ccccc2)CC1)NC1CCN(c2ccc(F)cc2)CC1` [8-39, 1-[2-(1-benzylpiperidin-4-yl)ethyl]-3-[1-(4-fluorophenyl)piperidin-4-yl]urea] as the molecule, how does the pKi read?
Its pKi is 6.00 to 7.00.

`N#Cc1cccc(N2CCC(NC(=O)NCCC3CCN(Cc4ccccc4)CC3)CC2)c1` [8-40, 3-[2-(1-benzylpiperidin-4-yl)ethyl]-1-[1-(3-cyanophenyl)piperidin-4-yl]urea] was tested. Which pKi did it give?
The pKi was 6.00 to 7.00.

With `O=C(NCCC1CCN(Cc2ccccc2)CC1)Nc1ccc(Oc2ccccc2)cc1` [8-41, 3-[2-(1-benzylpiperidin-4-yl)ethyl]-1-(4-phenoxyphenyl)urea] as the molecule, how does the pKi read?
Its pKi is 6.00 to 7.00.

`COc1ccccc1C1(O)CCN(C(=O)NCCC2CCN(Cc3ccccc3)CC2)CC1` [8-42, N-[2-(1-benzylpiperidin-4-yl)ethyl]-4-hydroxy-4-(2-methoxyphenyl)piperidine-1-carboxamide] was tested. Which pKi did it give?
Its pKi is 6.00 to 7.00.

How did the pKi turn out when `Cc1ccc(N2CCN(C(=O)NCCC3CCN(Cc4ccccc4)CC3)CC2)c(CO)c1` [8-43, N-[2-(1-benzylpiperidin-4-yl)ethyl]-4-[2-(hydroxymethyl)-4-methylphenyl]piperazine-1-carboxamide] was run?
Its pKi is 6.00 to 7.00.

With `O=C(NCCC1CCN(Cc2ccccc2)CC1)N1CCC(N2Cc3ccccc3NC2=O)CC1` [8-44, N-[2-(1-benzylpiperidin-4-yl)ethyl]-4-(2-oxo-1,2,3,4-tetrahydroquinazolin-3-yl)piperidine-1-carboxamide] as the molecule, how does the pKi read?
The pKi was 6.00 to 7.00.

With `N#Cc1ccc(N2CCN(C(=O)NCCC3CCN(Cc4ccccc4)CC3)CC2)nc1` [8-45, N-[2-(1-benzylpiperidin-4-yl)ethyl]-4-(5-cyanopyridin-2-yl)piperazine-1-carboxamide] as the molecule, how does the pKi read?
Its pKi is 6.00 to 7.00.

`O=C(NCCC1CCN(Cc2ccccc2)CC1)N1CCC(n2nnc3ccccc32)CC1` [8-46, 4-(1H-1,2,3-benzotriazol-1-yl)-N-[2-(1-benzylpiperidin-4-yl)ethyl]piperidine-1-carboxamide] was tested. Which pKi did it give?
The pKi was 6.00 to 7.00.

`O=C(NCCC1CCN(Cc2ccccc2)CC1)N1CCN(c2ncccc2Cl)CC1` [8-47, N-[2-(1-benzylpiperidin-4-yl)ethyl]-4-(3-chloropyridin-2-yl)piperazine-1-carboxamide] was tested. Which pKi did it give?
Its pKi is 6.00 to 7.00.

With `O=C(c1ccc(-c2ccccc2)cc1)N(C1CC1)C1CCN(Cc2ccccc2)CC1` [9-2, N-(1-benzylpiperidin-4-yl)-N-cyclopropyl-4-phenylbenzamide] as the molecule, how does the pKi read?
The pKi was 6.00 to 7.00.

`O=C(C1CCN(c2ccc(OC(F)(F)F)cc2)CC1)N(CCO)CCC1CCN(Cc2ccccc2)CC1` [9-3, N-[2-(1-benzylpiperidin-4-yl)ethyl]-N-(2-hydroxyethyl)-1-[4-(trifluoromethoxy)phenyl]piperidine-4-carboxamide] was tested. Which pKi did it give?
Its pKi is 6.00 to 7.00.

How did the pKi turn out when `Cc1nc(-c2ccc(Cl)cc2)sc1C(=O)NCCC1CCN(Cc2ccccc2)CC1` [9-4, N-[2-(1-benzylpiperidin-4-yl)ethyl]-2-(4-chlorophenyl)-4-methyl-1,3-thiazole-5-carboxamide] was run?
The pKi was 6.00 to 7.00.

`O=C(NCCC1(CO)CCN(Cc2ccccc2)CC1)C1CCN(c2cccc(OC(F)(F)F)c2)CC1` [9-11, N-{2-[1-benzyl-4-(hydroxymethyl)piperidin-4-yl]ethyl}-1-[3-(trifluoromethoxy)phenyl]piperidine-4-carboxamide] was tested. Which pKi did it give?
The pKi was 7.00 to 8.00.

How did the pKi turn out when `O=C(NCCC1CCN(Cc2ccccc2)CC1)c1ccc(-c2ccc(Cl)cc2)cc1F` [9-12, N-[2-(1-benzylpiperidin-4-yl)ethyl]-4-(4-chlorophenyl)-2-fluorobenzamide] was run?
The pKi was 7.00 to 8.00.
